What was measured:
memapsin 2 = memapsin 2 (Homo sapiens, UniProt P56817); experiment: Inhibition of memapsin 2 beta-secretase activity toward fluorogenic substrate FS-2; assay type: biochemical; conditions: memapsin 2, pH 4, 37° C., 20 minutes pre-incubation, substrate FS-2; read-out: M2Ki
How it was run: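 Memapsin 2 was preincubated with compound 20 min at pH 4, 37 °C, then reacted with fluorogenic substrate FS-2 (MCA-SEVNLDAEFK-DNP), an APP-derived Swedish-variant peptide. Inhibition was followed kinetically by fluorescence.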

[1] = system: Aβ production in Chinese hamster ovary cells that over-express human APP695 with the London and Swedish mutations; experiment: Cellular Aβ IC50 determination (Aβ40 sandwich ELISA); assay type: cell-based; conditions: Cricetulus griseus; Aβ40 in CHO cells over-expressing human APP695, 24 h incubation
How it was run: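 APP695 (London/Swedish)-overexpressing CHO cells were treated 48 h after seeding with serial dilutions from near 4 μM top concentration (0.4% DMSO) for 24 h at 37 °C. Secreted Aβ40 was quantified by sandwich ELISA relative to controls and fit to a 4-parameter IC50 model.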

memapsin 2, sequence (P56817 46-501): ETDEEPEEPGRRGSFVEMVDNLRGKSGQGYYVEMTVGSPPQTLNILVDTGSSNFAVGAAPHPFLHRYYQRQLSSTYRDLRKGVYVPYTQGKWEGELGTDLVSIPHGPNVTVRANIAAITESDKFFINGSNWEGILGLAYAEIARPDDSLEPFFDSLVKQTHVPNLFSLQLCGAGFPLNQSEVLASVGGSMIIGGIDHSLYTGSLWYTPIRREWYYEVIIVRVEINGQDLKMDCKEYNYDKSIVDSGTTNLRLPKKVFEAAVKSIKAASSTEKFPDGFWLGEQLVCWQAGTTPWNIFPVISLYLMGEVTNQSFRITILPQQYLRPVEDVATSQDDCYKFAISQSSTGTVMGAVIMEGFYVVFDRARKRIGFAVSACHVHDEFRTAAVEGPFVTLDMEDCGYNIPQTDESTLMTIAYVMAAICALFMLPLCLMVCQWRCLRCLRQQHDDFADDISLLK

Ki (memapsin 2) [µM]	IC50 [1] [µM]	Structure (SMILES)
< 0.1	< 0.3	Cc1csc([C@H]2CCCN2C(=O)c2cc(C(=O)N[C@@H](Cc3ccccc3)[C@H](O)CNCc3cncc(C(C)(F)F)c3)cc(N(C)C)c2)n1 [Compound 40, N-((2S,3R)-4-((5-(1,1-difluoroethyl)pyridin-3-yl)methylamino)-3-hydroxy-1-phenylbutan-2-yl)-3-(dimethylamino)-5-((R)-2-(4-methylthiazol-2-yl)pyrrolidine-1-carbonyl)benzamide]
< 0.1	< 0.3	Cc1csc([C@H]2CCCN2C(=O)c2cccc(C(=O)N[C@@H](Cc3ccccc3)[C@H](O)CNCc3cncc(C(C)(C)F)c3)c2)n1 [Compound 45, N-((2S,3R)-4-((5-(2-fluoropropan-2-yl)pyridin-3-yl)methylamino)-3-hydroxy-1-phenylbutan-2-yl)-3-((R)-2-(4-methylthiazol-2-yl)pyrrolidine-1-carbonyl)benzamide]
< 0.1	< 0.3	Cc1csc([C@H]2CCCN2C(=O)c2cc(C(=O)N[C@@H](Cc3ccccc3)[C@H](O)CNCc3cccc(C(F)(F)F)c3)cc(-n3cccc3)c2)n1 [Compound 80, N-((2S,3R)-3-hydroxy-1-phenyl-4-(3-(trifluoromethyl)benzylamino)butan-2-yl)-3-((R)-2-(4-methylthiazol-2-yl)pyrrolidine-1-carbonyl)-5-(1H-pyrrol-1-yl)benzamide]
< 0.1	< 0.3	Cc1coc([C@H]2CCCN2C(=O)c2cc(C(=O)N[C@@H](Cc3ccccc3)[C@H](O)CNCc3cncc(C(C)C)c3)cc(N(C)C)c2)n1 [Compound 92, 3-(dimethylamino)-N-((2S,3R)-3-hydroxy-4-((5-isopropylpyridin-3-yl)methylamino)-1-phenylbutan-2-yl)-5-((R)-2-(4-methyloxazol-2-yl)pyrrolidine-1-carbonyl)benzamide]
< 0.1	< 0.3	Cc1cc(C(=O)N[C@@H](Cc2ccccc2)[C@H](O)CNCc2cccc(C(F)(F)F)c2)cc(C(=O)N2CCC[C@@H]2c2nc(C)co2)n1 [Compound 84, N-((2S,3R)-3-hydroxy-1-phenyl-4-(3-(trifluoromethyl)benzylamino)butan-2-yl)-2-methyl-6-((R)-2-(4-methyloxazol-2-yl)pyrrolidine-1-carbonyl)isonicotinamide]
< 0.1	< 0.3	COC[C@H]1CCCN1C(=O)c1cc(C)cc(C(=O)N[C@@H](Cc2ccccc2)[C@H](O)CNCc2cccc(OC)c2)c1 [Compound 3, N-((2S,3R)-3-hydroxy-4-(3-methoxybenzylamino)-1-phenylbutan-2-yl)-3-((R)-2-(methoxymethyl)pyrrolidine-1-carbonyl)-5-methylbenzamide]
< 0.1	< 0.3	Cc1cc(C(=O)N[C@@H](Cc2ccccc2)[C@H](O)CNCc2cccc(C(C)(F)F)c2)cc(C(=O)N2CCC[C@@H]2c2nc(C)co2)c1 [Compound 104, N-((2S,3R)-4-(3-(1,1-difluoroethyl)benzylamino)-3-hydroxy-1-phenylbutan-2-yl)-3-methyl-5-((R)-2-(4-methyloxazol-2-yl)pyrrolidine-1-carbonyl)benzamide]
< 0.1	< 0.3	Cc1cc(C(=O)N[C@@H](Cc2ccccc2)[C@H](O)CNCc2cncc(C(C)(C)F)c2)cc(C(=O)N2CCC[C@@H]2c2nc(C)co2)c1 [Compound 59, N-((2S,3R)-4-((5-(2-fluoropropan-2-yl)pyridin-3-yl)methylamino)-3-hydroxy-1-phenylbutan-2-yl)-3-methyl-5-((R)-2-(4-methyloxazol-2-yl)pyrrolidine-1-carbonyl)benzamide]
< 0.1	< 0.3	Cc1csc([C@H]2CCCN2C(=O)c2cc(C(=O)N[C@@H](Cc3ccccc3)[C@H](O)CNCc3cncc(C(C)C)c3)cc(-c3cnccn3)c2)n1 [Compound 43, N-((2S,3R)-3-hydroxy-4-((5-isopropylpyridin-3-yl)methylamino)-1-phenylbutan-2-yl)-3-((R)-2-(4-methylthiazol-2-yl)pyrrolidine-1-carbonyl)-5-(pyrazin-2-yl)benzamide]
